According to publication PMC4116523, “Novel peptides suppress VEGFR-3 activity and antagonize VEGFR-3-mediated oncogenic effects” (Oncotarget, 2014):
Bridges are numbered along the chain shown (N, C = ends). Where no end group is shown, it is not given here.

Assays:
[1] = tested on: sVEGFR-3; assay: Competition assay of synthesized peptides with rhVEGF-C for binding to plate-bound sVEGFR-3 (ELISA); design: species or system human; conditions: sVEGFR-3 250 ng/mL coated; peptide 6 h RT, then rhVEGF-C 300 ng/mL 6 h; ELISA A450/650; mean of three independent experiments; Figure 1A
Method: Soluble VEGFR-3 (sVEGFR-3) (250 ng/mL) (Angio-Proteomie, Boston, MA) was immobilized on 96-well plates and blocked with phosphate buffer containing 1% BSA for 1 hour at room temperature. In competition experiments, peptides were incubated with the VEGFR-3-coated plates for 6 hours at room temperature. After incubation, human recombinant VEGF-C protein (rhVEGF-C, 300 ng/mL, 100 μL) was added directly to the wells without removal of the peptides and then incubated at room temperature for 6 hours. The plates were thoroughly washed with 0.1% BSA/PBS buffer (pH 8.5), and anti–VEGF-C Ab was added at 4°C for 24 hours. Biotin-conjugated goat anti-rabbit IgG antibody was added for 1 hour. HRP-conjugated streptavidin was then added for 30 minutes. The free streptavidin conjugate was washed away and freshly prepared substrate solution (TMB) was then added to each well. The reaction was allowed to stand for 15 minutes, and the color development was stopped by the addition of H3PO4 (1.0 mol/L). The absorbance at 450 nm was read with a reference wavelength of 650 nm (A450/650).

[2] = tested on: VEGFR-3; assay: KIRA-ELISA of tyr-phosphorylated VEGFR-3 in VEGF-C-treated H928 lung cancer cells; type: cell-based, human; conditions: serum-starved, peptide 30 min then rhVEGF-C 15 min, Figure 1C
Method: H928 lung cancer cells (2×10^5) were cultured in 24-well plates and serum-starved for 24 hours. Cells were pretreated with candidate peptide for 30 minutes and then treated with rhVEGF-C for 15 minutes. Cells were solubilized in RIPA lysis buffer for 60 minutes. Another 85 μl of cell lysate was transferred to an ELISA well that was coated with VEGFR-3 and incubated for 2 hours. After the plates were washed, biotinylated-4G10 antibody (500 ng/ml, 100 μl) was added and incubated for 2 hours. After the plates were washed, HRP-conjugated streptavidin was then added for 30 minutes. The free avidin conjugate was washed away and freshly prepared substrate solution (TMB) was then added to each well. The reactions were allowed to proceed for 10 minutes, and the color development was stopped by the addition of H3PO4 (1.0 mol/L). The absorbance at 450 nm was read with a reference wavelength of 650 nm (A450/650).

[3] = tested on: A549 cells; assay: VEGF-C-induced drug resistance (Taxol, cisplatin), DNA flow cytometric and trypan blue exclusion assays; type: cell-based, human; conditions: A549, rhVEGF-C, 20 nM Taxol or 10μM cisplatin 48 hours; flow cytometry (PI) and trypan blue exclusion; Figure 3E-3H
Method: Briefly, cells were treated with 20 nM Taxol or 10μM cisplatin and incubated for 48 hours. Samples were prepared and analyzed as previously described.
Briefly, cells were harvested using trypsin and stained with 0.4% trypan blue dye (Sigma-Aldrich). Trypan blue-positive and -negative cells were counted using a hemacytometer (Hausser Scientific, Horsham, PA) under a phase-contrast microscope (Fisher Scientific, Pittsburgh, PA). The results of each assay were expressed in terms of the percentage of dead cells relative to the total number of cells. Individual experiments were performed in triplicate.

[4] = tested on: A549 lung cancer cells; assay: Boyden chamber migration/invasion assay, A549; type: cell-based, human; conditions: peptide 100 μM, 24 hours, uncoated / matrigel-coated transwells, Figure 3
Method: (§1) Boyden chamber cell migration assays were performed using uncoated transwells and matrigel-coated transwells with membranes (8 μm pore-size) (Becton Dickinson, Mountain View, CA). The chambers were inserted into 24-well culture plates that contained DMEM/F12 with 10% fetal bovine serum. The cells were pretreated with peptide (100 μM) in serum-free DMEM/F12 medium and were loaded into the transwells. After 24 hours, non-migrated cells were removed with a cotton swab and the cells were fixed with methanol for 15 min and stained with crystal violet. The migrated cells were quantified by blind counting of the migrated cells on the lower surface of the membrane from at least 10 fields per chamber using a 20X objective. All migration and invasion assays were normalized to the proliferation rate.

[5] = tested on: MDA-MB-231 breast cancer cells; assay: Boyden chamber migration/invasion assay, MDA-MB-231; type: cell-based, human; conditions: peptide 100 μM, 24 hours, uncoated / matrigel-coated transwells, Figure 3
Method: as §1

[6] = tested on: Src; assay: Western blot of Src phosphorylation (VEGFR-3-mediated signaling pathway); type: cell-based, human; conditions: A549 and 293T/VEGFR-3 cells, rhVEGF-C, Figure 2A, 2B
Method: (§2) Cells were incubated in serum-free DMEM/F12 for 24 hours before treatment with or without rhVEGF-C (100 ng/mL). Cells were lysed in RIPA buffer [Tris-HCl (50 mM; pH 7.5), NaCl (120 mM), NP-40 (0.5%), Na3VO4 (200 mM), EDTA (100 mM), sodium deoxycholate (0.5%), SDS (1%)] for 10 minutes on ice. An equal quantity of protein from the cell lysates was resuspended in gel sample buffer, resolved by 10% SDS-PAGE, and transferred to polyvinylidene difluoride membrane membranes (Millipore Corp., Milford, MA). After blocking, membranes were incubated with specific primary antibodies and corresponding secondary antibodies. Immunoreaction signals were visualized by an enhanced chemiluminescence detection system (PerkinElmer Health Sciences, Waltham MA).

[7] = tested on: various cancer cell lines (MDA-MB-231, BT474, HS578T, HBL100, MDA-MB-361, MCF-7, CL1-5, H460, H322); assay: VEGF-C-induced VEGFR-3 phosphorylation, migration and invasion in various cancer cell lines; type: cell-based, human; conditions: various breast and lung cancer cell lines; Figure 4B-4E, Figure S4
Method: as §2
as §1, with “After 24 hours, non-migrated cells were removed with a cotton swab and the cells were fixed with methanol for 15 min and stained with crystal violet.” left out, “All migration and invasion assays were normalized to the proliferation rate.” left out

[8] = tested on: lymphatic endothelia cells (LECs); assay: VEGF-C-induced VEGFR-3 phosphorylation, migration and proliferation in LECs (western blot, Boyden chamber, MTT); type: cell-based, human; conditions: MTT (96 hrs), Figure 4A
[9] = tested on: A549 cells; assay: VEGF-C-induced drug resistance (Taxol, cisplatin), MTT assay; type: cell-based, human; conditions: A549, peptides 200 μM, rhVEGF-C 100 ng/mL, Taxol or cisplatin; Figure S3
Method: A549 lung cancer cells (3×10^3) were cultured in 96-well plates and serum-starved for 24 hours. Cells were treated with the candidate peptides (200 μM) for 4 hours and were treated with rhVEGF-C (100 ng/mL) for 6 hours in serum-free medium. After 48 hours, MTT (5 mg/ml) was added for 3 hours and the precipitates were dissolved in DMSO. The absorbance at 570 nm was read with a reference wavelength of 630 nm (A570/630).

[10] = tested on: VEGFR-3; assay: Western blot of VEGF-C-induced VEGFR-3 Tyr1063/1068 phosphorylation; type: cell-based, human; conditions: A549 and 293T/VEGFR-3 cells, peptides 24 hours, rhVEGF-C, Figure 2A, 2B
Method: as §2

[11] = tested on: human soluble protein kinase VEGFR-3 (sVEGFR-3); assay: VEGFR-3 kinase assay ([32P]ATP, poly(Glu:Tyr); Eurofins Panlabs); type: biochemical; conditions: peptides screened at 10 μM, 0.1 μg/ml enzyme, HEPES pH 7.4, 15 min preincubation 37°C, 10 μM ATP, [γ32P]ATP, 30 min, Figure 1B
Method: Kinase assays were performed as previously described. Briefly, human soluble protein kinase VEGFR-3 (sVEGFR-3) that was expressed in insect cells was used for the kinase assays. The candidate peptides were preincubated with 0.1 μg/ml of enzyme in modified HEPES buffer pH 7.4 for 15 minutes at 37°C. The reaction was initiated by addition of 0.2 mg/ml poly(Glu:Tyr), 10 μM ATP and 0.25 μCi [γ^32P]ATP for another 30 minute incubation period and terminated by further addition of 3% H3PO4. Aliquots were removed and counted to determine the amount of [^32P] Poly(Glu:Tyr) that formed. Compounds were screened at 10 μM. All peptides were analyzed by Eurofins Panlabs Taiwan Ltd.

[12] = tested on: SOX2; assay: SOX2 expression by reverse transcription PCR in A549 spheres; type: cell-based, human; conditions: A549 spheres grown 10 days; Figure S6
Method: Total RNA was isolated after A549 spheres had grown for 10 days by using Trizol (Invitrogen, Carlsbad, CA), and cDNA were synthesized with Oligo dT (Thermo Scientific, Brookfield, WI). The specific primers for SOX2 were 5'-TACAACATGATGGAGACG-3' and 5'-[…]-3'. The reaction was cycled at 95°C for 40 seconds, then 56°C for 40 seconds, and then 72°C for 30 seconds for 30 cycles followed by a final extension of 72°C for 5 minutes.

[13] = tested on: MDA-MB-231/VEGF-C lung metastasis; assay: Experimental metastasis assay, MDA-MB-231/VEGF-C cells by tail vein, bioluminescent imaging of lung; type: in vivo; conditions: SCID mice, n=8, peptide 8 μg/g body weight i.v., one day before cells then twice weekly for 8 weeks; bioluminescence; control peptide P4; Figure 5
Method: All animal work was performed in accordance with protocols that were approved by the Institutional Animal Care and Use Committee of the National Health Research Institutes. All of the animal experiments were performed on 6- to 8-week-old CB-17 severe combined immunodeficient (SCID) female mice (supplied by LASCO, Taiwan) with eight animals per group. The control (P4), P5 and P6 peptides were pretreated with 8 μg/g body weight dissolved in 50 μl PBS and i.v. injected into mice one day before cancer cell injection. For experimental metastasis assays, 2.5 × 10^5 viable cells were resuspended in 0.1 mL of PBS and introduced into the circulation via tail vein injection. For the treatment, peptides were administered (8 μg/g body weight) twice weekly for 8 weeks. The luciferase-based, non-invasive bioluminescent imaging and analysis were performed with the Xenogen IVIS-200 system (Xenogen, Alameda, CA, USA).

[14] = tested on: MCF-7 cells; assay: Sphere-forming assay (tumor initiating cells), MCF-7; type: cell-based, human; conditions: peptide 200 μM, rhVEGF-C 200 ng/mL, 10 days non-adherent, Figure S5B
Method: (§3) A549 and MCF-7 cells were serum-starved for 24 hours. The cells were pretreated with candidate peptides (200 μM) in the presence or absence of rhVEGF-C for 24 hours. The cells were trypsinized and mechanically dissociated to generate single cells that were then seeded at a density of 1×10^3 cells/ml in serum-free DMEM/F12 medium (Invitrogen, Carlsbad, CA) that was freshly supplemented with epidermal growth factor (20 ng/ml), basic fibroblast growth factor (20 ng/ml) (R&D Systems, Minneapolis, MN), 1X B27 supplement, 1X N2 supplement (Invitrogen, Carlsbad, CA) in the presence or absence of rhVEGF-C (200 ng/mL) and candidate peptides (200 μM) in non-adherent plates for 10 days. Quantification of sphere formation was determined by measuring the percentage of 5000 spheres.

[15] = tested on: A549 cells; assay: Sphere-forming assay (tumor initiating cells), A549; type: cell-based, human; conditions: peptide 200 μM, rhVEGF-C 200 ng/mL, 10 days non-adherent, Figure S5A
Method: as §3

Row | Sequence | levels of sVEGFR-3-bound VEGF-C (competition with VEGF-C binding) [1] | inhibitory effects on the phosphorylation of VEGFR-3 (KIRA-ELISA) [2] | VEGF-C-induced drug resistance [3] | migration and invasion [4] | migration and invasion [5] | phospho-Src levels [6] | VEGF-C-induced VEGFR-3 phosphorylation, cell migration and invasion [7] | VEGF-C-induced VEGFR-3 phosphorylation, cell migration and proliferation of LECs [8] | VEGF-C-induced drug resistance by MTT assay [9] | VEGF-C-induced VEGFR-3 Tyr1063/1068 phosphorylation [10] | inhibitory effects on VEGFR-3 kinase activity [11] [%] | expression of SOX2 [12] | VEGF-C-induced lung metastasis [13] | sphere formation enhanced by VEGF-C (number and size of spheres) [14] | sphere formation enhanced by VEGF-C (number and size of spheres) [15]
1 | CNDSHMKLC (disulfide 1-9 (inferred)) [P4, used as control peptide in later assays] | reduced the levels of bound VEGF-C in a significant and dose-dependent manner |  |  |  |  |  |  |  |  |  |  |  |  |  | 
2 | CYYGQSKYC (disulfide 1-9 (inferred)) [P6] | reduced the levels of bound VEGF-C in a significant and dose-dependent manner | highest inhibitory effects | inhibit | Obvious decreases | Obvious decreases | decreased phospho-Src levels | significantly inhibited | abolished | inhibit | dramatic suppressive effects | 72 | decreased the expression of SOX2 | significantly inhibited |  | 
3 | CLTSSLRSC (disulfide 1-9 (inferred)) [P8] |  |  |  |  |  |  |  |  |  |  | 49 |  |  |  | 
4 | CYYWQSKYC (disulfide 1-9 (inferred)) [P7] |  |  |  |  |  |  |  |  |  |  | 69 |  |  |  | 
5 | CNYSHLFYC (disulfide 1-9 (inferred)) [P5] | reduced the levels of bound VEGF-C in a significant and dose-dependent manner | highest inhibitory effects | inhibit | Obvious decreases | Obvious decreases | decreased phospho-Src levels | significantly inhibited | abolished | inhibit | dramatic suppressive effects | 82 | decreased the expression of SOX2 | significantly inhibited | decreased the number and size of the spheres | decreased the number and size of the spheres
